Experimental data taken from patent publication US20260297081A1, “COMPOUNDS AND METHODS OF TREATING CANCERS” (Cullgen Inc., priority 2023, published 2026).

Experiments:
Assay type in all cases: cell-based
MCF7 cells = assay: Anti-proliferation (viability) of MCF7 cells (Table 7, FIG. 2B); details: Homo sapiens, MCF7, MCF7 cells, 3-6 days, 10-point serial dilution; read-out: GI IC50 in MCF-7
CDK4 [1] = biological target: T1, CDK4 (Homo sapiens, UniProt P11802+Q16531); assay: CDK4 percentage degradation in Calu-1 cells (Table 6); parameters: Cells that express cyclin D1-3 and CDK4/6 proteins were treated with heterobifunctional compounds; endogenous in cells; host or cells: Calu-1; details: 16 hours; for inhibition at 0.04 µM: 40 nM; for inhibition at 0.2 µM: 200 nM
In short: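 Percentage degradation of Cyclin D1 and CDK4 derived from densitometry of ECL Western blots on lysates of Calu-1 cells. Treatment was 16 h with compound at either 40 nM or 200 nM.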
Target sequence in this assay (P11802 2-303 limits assumed): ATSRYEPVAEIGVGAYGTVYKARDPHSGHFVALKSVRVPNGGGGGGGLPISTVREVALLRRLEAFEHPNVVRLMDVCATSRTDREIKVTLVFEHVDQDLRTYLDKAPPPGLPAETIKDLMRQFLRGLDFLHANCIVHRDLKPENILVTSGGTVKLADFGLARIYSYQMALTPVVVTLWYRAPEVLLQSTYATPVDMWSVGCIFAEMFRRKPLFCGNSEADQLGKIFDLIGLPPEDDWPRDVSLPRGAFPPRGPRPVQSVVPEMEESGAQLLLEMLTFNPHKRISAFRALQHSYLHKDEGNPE
Target sequence in this assay (P24385 whole entry partner): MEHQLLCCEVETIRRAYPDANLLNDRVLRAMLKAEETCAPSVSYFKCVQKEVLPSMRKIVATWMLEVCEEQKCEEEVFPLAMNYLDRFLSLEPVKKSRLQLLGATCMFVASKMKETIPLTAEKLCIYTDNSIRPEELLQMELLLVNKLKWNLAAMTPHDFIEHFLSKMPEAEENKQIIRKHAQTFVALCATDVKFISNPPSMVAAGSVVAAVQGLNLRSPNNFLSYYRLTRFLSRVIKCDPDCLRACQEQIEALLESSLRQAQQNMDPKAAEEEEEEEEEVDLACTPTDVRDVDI
Target sequence in this assay (Q16531 2-1140 limits assumed): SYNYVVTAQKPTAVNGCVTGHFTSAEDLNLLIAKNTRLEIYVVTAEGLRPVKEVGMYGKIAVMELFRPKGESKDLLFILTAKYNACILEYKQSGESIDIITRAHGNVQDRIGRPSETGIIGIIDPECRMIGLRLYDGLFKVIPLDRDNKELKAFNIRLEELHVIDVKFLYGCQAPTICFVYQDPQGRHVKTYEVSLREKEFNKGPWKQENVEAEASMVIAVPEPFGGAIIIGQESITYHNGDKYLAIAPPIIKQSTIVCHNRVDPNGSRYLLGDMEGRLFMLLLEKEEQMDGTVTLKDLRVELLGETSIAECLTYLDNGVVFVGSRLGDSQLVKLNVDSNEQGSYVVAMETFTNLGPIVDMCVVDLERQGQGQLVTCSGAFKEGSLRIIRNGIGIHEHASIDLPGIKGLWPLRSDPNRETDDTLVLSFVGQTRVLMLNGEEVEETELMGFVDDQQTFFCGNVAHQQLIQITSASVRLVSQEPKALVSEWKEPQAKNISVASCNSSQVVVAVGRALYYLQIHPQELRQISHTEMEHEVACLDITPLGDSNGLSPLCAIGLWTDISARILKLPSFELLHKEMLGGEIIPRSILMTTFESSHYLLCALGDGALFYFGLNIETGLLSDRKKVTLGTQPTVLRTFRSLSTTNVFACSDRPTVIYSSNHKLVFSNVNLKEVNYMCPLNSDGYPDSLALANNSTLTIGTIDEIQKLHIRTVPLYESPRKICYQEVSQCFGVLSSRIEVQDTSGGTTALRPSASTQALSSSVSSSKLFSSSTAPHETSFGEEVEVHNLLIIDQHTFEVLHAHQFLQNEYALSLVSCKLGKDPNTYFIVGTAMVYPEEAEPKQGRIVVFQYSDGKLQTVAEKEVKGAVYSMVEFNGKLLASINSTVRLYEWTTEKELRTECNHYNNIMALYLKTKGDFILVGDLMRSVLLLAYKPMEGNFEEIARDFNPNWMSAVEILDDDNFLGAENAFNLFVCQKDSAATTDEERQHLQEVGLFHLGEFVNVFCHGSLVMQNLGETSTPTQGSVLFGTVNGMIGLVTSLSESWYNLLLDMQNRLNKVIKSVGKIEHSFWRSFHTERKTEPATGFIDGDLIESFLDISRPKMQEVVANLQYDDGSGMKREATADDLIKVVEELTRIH

CDK4 [2] = biological target: T1, CDK4; assay: HiBiT detection of HiBiT-tagged CDK4 protein level in MCF7 cells, 16 hours (Table 8); parameters: expressed in transfected cells; host or cells: MCF7; details: MCF7 cells stably expressing HiBiT tagged target proteins; for activity at 0.01 µM: 10 nM, read-out: % CDK4 Relative Level (10 nM); for activity at 0.1 µM: 100 nM, read-out: % CDK4 Relative Level (100 nM)
Protocol: HiBiT detection system quantitatively measures total amounts of HiBiT-tagged proteins using a luminescent based method. MCF7 cells stably expressing HiBiT tagged target proteins were treated with heterobifunctional compounds at indicated concentrations for 16 hours, then lysed with Nano-Glo HiBiT Lytic detection reagents.
Target sequence in this assay (P11802 whole entry): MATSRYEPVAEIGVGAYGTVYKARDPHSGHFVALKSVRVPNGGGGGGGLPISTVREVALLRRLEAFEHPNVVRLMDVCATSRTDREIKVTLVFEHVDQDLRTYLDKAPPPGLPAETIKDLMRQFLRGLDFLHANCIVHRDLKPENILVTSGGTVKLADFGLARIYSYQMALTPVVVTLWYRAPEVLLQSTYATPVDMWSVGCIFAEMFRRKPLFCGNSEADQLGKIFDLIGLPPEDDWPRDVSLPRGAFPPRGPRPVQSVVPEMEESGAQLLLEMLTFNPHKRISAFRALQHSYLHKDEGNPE
Target sequence in this assay (P24385 whole entry partner): as the sequence (P24385 whole entry partner) above
Target sequence in this assay (Q16531 2-1140 limits assumed): as the sequence (Q16531 2-1140 limits assumed) above

SMILES | IC50 (MCF7 cells) [nM] | inhibition at 0.04 µM (CDK4 [1]) [%] | inhibition at 0.2 µM (CDK4 [1]) [%] | activity at 0.01 µM (CDK4 [2]) [%] | activity at 0.1 µM (CDK4 [2]) [%]
CC(=O)c1c(C)c2cnc(Nc3ccc(CN4CCN(CC(=O)N5CCC(Nc6nc(NC(C)C)ccc6C(=O)Nc6ccc(N(C)C)nn6)CC5)CC4)cn3)nc2n(C2CCCC2)c1=O [CPD-358, 2-((1-(2-(4-((6-((6-acetyl-8-cyclopentyl-5-methyl-7-oxo-7,8-dihydropyrido[2,3-d]pyrimidin-2-yl)amino)pyridin-3-yl)methyl)piperazin-1-yl)acetyl)piperidin-4-yl)amino)-N-(6-(dimethylamino)pyridazin-3-yl)-6-(isopropylamino)nicotinamide] | 50 to 100 | < 30 | < 30 |  | 
CC(=O)c1c(C)c2cnc(Nc3ccc(N4CCN(C(CC(=O)N5CC6(CC(Nc7nc(NC(C)C)ccc7C(=O)Nc7ccc(N(C)C)nn7)C6)C5)C(F)(F)F)CC4)cn3)nc2n(C2CCCC2)c1=O (centres unmarked) [CPD-367, 2-((2-(3-(4-(6-((6-acetyl-8-cyclopentyl-5-methyl-7-oxo-7,8-dihydropyrido[2,3-d]pyrimidin-2-yl)amino)pyridin-3-yl)piperazin-1-yl)-4,4,4-trifluorobutanoyl)-2-azaspiro[3.3]heptan-6-yl)amino)-N-(6-(dimethylamino)pyridazin-3-yl)-6-(isopropylamino)nicotinamide] | < 50 | < 30 | < 30 |  | 
CC(=O)c1c(C)c2cnc(Nc3ccc(N4CCN(C5CCN(C(=O)[C@H]6CC[C@H](Nc7nc(NC(C)C)ccc7C(=O)Nc7ccc(N(C)C)nn7)CC6)C5)CC4)cn3)nc2n(C2CCCC2)c1=O (some centres unmarked) [CPD-399, 2-((−4-(3-(4-(6-((6-acetyl-8-cyclopentyl-5-methyl-7-oxo-7,8-dihydropyrido[2,3-d]pyrimidin-2-yl)amino)pyridin-3-yl)piperazin-1-yl)pyrrolidine-1-carbonyl)cyclohexyl)amino)-N-(6-(dimethylamino)pyridazin-3-yl)-6-(isopropylamino)nicotinamide] | < 50 | < 30 | < 30 |  | 
CC(=O)c1c(C)c2cnc(Nc3ccc(N4CCN(C5CCN(C(=O)C6CC(Nc7nc(NC(C)C)ccc7C(=O)Nc7ccc(N(C)C)nn7)C6)C5)CC4)cn3)nc2n(C2CCCC2)c1=O (centres unmarked) [CPD-402, 2-((3-(3-(4-(6-((6-acetyl-8-cyclopentyl-5-methyl-7-oxo-7,8-dihydropyrido[2,3-d]pyrimidin-2-yl)amino)pyridin-3-yl)piperazin-1-yl)pyrrolidine-1-carbonyl)cyclobutyl)amino)-N-(6-(dimethylamino)pyridazin-3-yl)-6-(isopropylamino)nicotinamide] | 50 to 100 | < 30 | < 30 |  | 
CC(=O)c1c(C)c2cnc(Nc3ccc(N4CCC5(CC4)CC5C(=O)N4CC5(CC(Nc6nc(NC(C)C)ccc6C(=O)Nc6ccc(N(C)C)nn6)C5)C4)cn3)nc2n(C2CCCC2)c1=O (centres unmarked) [CPD-411, 2-((2-(6-(6-((6-acetyl-8-cyclopentyl-5-methyl-7-oxo-7,8-dihydropyrido[2,3-d]pyrimidin-2-yl)amino)pyridin-3-yl)-6-azaspiro[2.5]octane-1-carbonyl)-2-azaspiro[3.3]heptan-6-yl)amino)-N-(6-(dimethylamino)pyridazin-3-yl)-6-(isopropylamino)nicotinamide] | < 50 | < 30 | < 30 |  | 
CC(C)Nc1ccc(C(=O)Nc2ccc(N(C)C)nn2)c(NC2CC3(CC(NC(=O)CN4CCN(Cc5ccc(Nc6ncc7cc(C(=O)N(C)C)n(C8CCCC8)c7n6)nc5)CC4)C3)C2)n1 (centres unmarked) [CPD-562, 7-cyclopentyl-2-((5-((4-(2-((6-((3-((6-(dimethylamino)pyridazin-3-yl)carbamoyl)-6-(isopropylamino)pyridin-2-yl)amino)spiro[3.3]heptan-2-yl)amino)-2-oxoethyl)piperazin-1-yl)methyl)pyridin-2-yl)amino)-N,N-dimethyl-7H-pyrrolo[2,3-d]pyrimidine-6-carboxamide] |  |  |  | > 85 | > 85
CC(C)Nc1ccc(C(=O)Nc2ccc(N(C)C)nn2)c(NC2CC3(C2)CN(C(=O)CN2CCN(Cc4ccc(Nc5ncc6cc(C(=O)N(C)C)n(C7CCCC7)c6n5)nc4)CC2)C3)n1 [CPD-563, 7-cyclopentyl-2-((5-((4-(2-(6-((3-((6-(dimethylamino)pyridazin-3-yl)carbamoyl)-6-(isopropylamino)pyridin-2-yl)amino)-2-azaspiro[3.3]heptan-2-yl)-2-oxoethyl)piperazin-1-yl)methyl)pyridin-2-yl)amino)-N,N-dimethyl-7H-pyrrolo[2,3-d]pyrimidine-6-carboxamide] |  |  |  | > 85 | > 85
CC(=O)c1c(C)c2cnc(Nc3ccc(CN4CCC(CC(=O)NC5CC6(C5)CC(Nc5nc(NC(C)C)ccc5C(=O)Nc5ccc(N(C)C)nn5)C6)CC4)cn3)nc2n(C2CCCC2)c1=O (centres unmarked) [CPD-593, 2-((6-(2-(1-((6-((6-acetyl-8-cyclopentyl-5-methyl-7-oxo-7,8-dihydropyrido[2,3-d]pyrimidin-2-yl)amino)pyridin-3-yl)methyl)piperidin-4-yl)acetamido)spiro[3.3]heptan-2-yl)amino)-N-(6-(dimethylamino)pyridazin-3-yl)-6-(isopropylamino)nicotinamide] |  |  |  | > 85 | > 85
CCc1ccc(C(=O)Nc2ccc(N(C)C)nn2)c(NC2CC3(CC(NC(=O)CN4CCN(Cc5ccc(Nc6ncc7c(C)c(C(C)=O)c(=O)n(C8CCCC8)c7n6)nc5)CC4)C3)C2)c1 (centres unmarked) [CPD-598, 2-((6-(2-(4-((6-((6-acetyl-8-cyclopentyl-5-methyl-7-oxo-7,8-dihydropyrido[2,3-d]pyrimidin-2-yl)amino)pyridin-3-yl)methyl)piperazin-1-yl)acetamido)spiro[3.3]heptan-2-yl)amino)-N-(6-(dimethylamino)pyridazin-3-yl)-4-ethylbenzamide] |  |  |  | 55 to 85 | > 85

Other lines, results leading:

IC50 (MCF7 cells) [nM] | inhibition at 0.04 µM (CDK4 [1]) [%] | inhibition at 0.2 µM (CDK4 [1]) [%] | activity at 0.01 µM (CDK4 [2]) [%] | activity at 0.1 µM (CDK4 [2]) [%] | SMILES
< 50 | < 30 | < 30 |  |  | CNc1ccc(C(=O)Nc2ccc(N(C)C)nn2)c(NC2CCN(C(=O)C3CC34CCN(c3ccc(Nc5ncc6c(C)c(C(C)=O)c(=O)n(C7CCCC7)c6n5)nc3)CC4)CC2)n1 (centres unmarked) [CPD-328, 2-((1-(6-(6-((6-acetyl-8-cyclopentyl-5-methyl-7-oxo-7,8-dihydropyrido[2,3-d]pyrimidin-2-yl)amino)pyridin-3-yl)-6-azaspiro[2.5]octane-1-carbonyl)piperidin-4-yl)amino)-N-(6-(dimethylamino)pyridazin-3-yl)-6-(methylamino)nicotinamide]
< 50 | < 30 | < 30 |  |  | CNc1ccc(C(=O)Nc2ccc(N(C)C)nn2)c(NC2CC(C(=O)N3CCC(N4CCN(c5ccc(Nc6ncc7c(C)c(C(C)=O)c(=O)n(C8CCCC8)c7n6)nc5)CC4)C3)C2)n1 (centres unmarked) [CPD-333, 2-((3-(3-(4-(6-((6-acetyl-8-cyclopentyl-5-methyl-7-oxo-7,8-dihydropyrido[2,3-d]pyrimidin-2-yl)amino)pyridin-3-yl)piperazin-1-yl)pyrrolidine-1-carbonyl)cyclobutyl)amino)-N-(6-(dimethylamino)pyridazin-3-yl)-6-(methylamino)nicotinamide]
< 50 | < 30 | < 30 |  |  | [2H]C([2H])([2H])Nc1ccc(C(=O)Nc2ccc(N(C)C)nn2)c(NC2CC3(C2)CN(C(=O)CC(C)N2CCN(c4ccc(Nc5ncc6c(C)c(C(C)=O)c(=O)n(C7CCCC7)c6n5)nc4)CC2)C3)n1 (centres unmarked) [CPD-341, 2-((2-(3-(4-(6-((6-acetyl-8-cyclopentyl-5-methyl-7-oxo-7,8-dihydropyrido[2,3-d]pyrimidin-2-yl)amino)pyridin-3-yl)piperazin-1-yl)butanoyl)-2-azaspiro[3.3]heptan-6-yl)amino)-N-(6-(dimethylamino)pyridazin-3-yl)-6-((methyl-d3)amino)nicotinamide]
< 50 | < 30 | < 30 |  |  | [2H]C([2H])([2H])Nc1ccc(C(=O)Nc2ccc(N(C)C)nn2)c(NC2CC3(C2)CN(C(=O)CC(N2CCN(c4ccc(Nc5ncc6c(C)c(C(C)=O)c(=O)n(C7CCCC7)c6n5)nc4)CC2)C(F)(F)F)C3)n1 (centres unmarked) [CPD-342, 2-((2-(3-(4-(6-((6-acetyl-8-cyclopentyl-5-methyl-7-oxo-7,8-dihydropyrido[2,3-d]pyrimidin-2-yl)amino)pyridin-3-yl)piperazin-1-yl)-4,4,4-trifluorobutanoyl)-2-azaspiro[3.3]heptan-6-yl)amino)-N-(6-(dimethylamino)pyridazin-3-yl)-6-((methyl-d3)amino)nicotinamide]
< 50 | < 30 | < 30 |  |  | CC(=O)c1c(C)c2cnc(Nc3ccc(N4CCN(C(C)CC(=O)N5CCC(Nc6nc(NC(C)C)ccc6C(=O)Nc6ccc(N(C)C)nn6)CC5)CC4)cn3)nc2n(C2CCCC2)c1=O (centres unmarked) [CPD-359, 2-((1-(3-(4-(6-((6-acetyl-8-cyclopentyl-5-methyl-7-oxo-7,8-dihydropyrido[2,3-d]pyrimidin-2-yl)amino)pyridin-3-yl)piperazin-1-yl)butanoyl)piperidin-4-yl)amino)-N-(6-(dimethylamino)pyridazin-3-yl)-6-(isopropylamino)nicotinamide]
